Assay [1] addresses BoNT/ALC. The experiment in a line: confirmation, biochemical, FRET, cleavage-site specific substrates (AID 651691). The settings on record: FRET protease cleavage assay, BoNT/A LC or LF.
The target of assay [2] is LF. Described as above. Conditions: FRET protease cleavage assay, BoNT/A LC or LF.

Calls of active or inactive are those of the source. How the calls were made is not given here. Some results are limits rather than exact numbers.

As to `O=[N+]([O-])c1ccc(N2N=C(c3ccccc3)CC2c2ccccc2)cc1` (stereo not given), the 50% inhibitory concentration (IC50) in assay [1] was 1000 nM.

With `O=C(Nc1ccc2nc(-c3cccs3)c(-c3cccs3)nc2c1)NC1CC1`, the IC50 entry in assay [2] was “inactive”. Moreover, the IC50 in assay [1] is > 20000 nM (inactive).

For `Clc1ccc(-c2cn3nc(-c4ccccc4)c(-c4ccccc4)nc3n2)cc1`, the IC50 result in assay [2] was “inactive”. The half-maximal inhibitory concentration (IC50) in assay [1] was 700 nM.

On to `Cc1ccc(-c2cn3nc(-c4ccccc4)c(-c4ccccc4)nc3n2)cc1`, for which, in assay [2], the IC50 entry was “inactive”. Moreover, in assay [1], the IC50 was 300 nM.

Take `O=[N+]([O-])c1ccc(C2=NN(c3ccccc3)C(c3ccco3)C2)cc1` (stereo not given): the IC50 in assay [1] was > 20000 nM (inactive).

With `COc1ccc(C2CC(c3cccs3)=NN2c2nc(C)c(C(C)=O)s2)cc1OC` (stereo not given), the IC50 in assay [1] was 1300 nM.

Take `COc1ccc(-c2cn3nc(-c4ccccc4)c(-c4ccccc4)nc3n2)cc1`: in assay [2], the IC50 entry is “inactive”. In addition, the IC50 in assay [1] is 500 nM.

Take `O=C(Nc1ccc2nc(-c3cccs3)c(-c3cccs3)nc2c1)N1CCCCC1`: in assay [1], the IC50 is 1200 nM.

Take `O=C(Nc1ccc2nc(-c3cccs3)c(-c3cccs3)nc2c1)N1CCOCC1`: the IC50 in assay [1] is > 20000 nM (inactive).

For the compound `c1ccc(-c2cn3nc(-c4ccccc4)c(-c4ccccc4)nc3n2)cc1`, the IC50 in assay [1] was 500 nM.

Take `COc1ccccc1N1N=C(c2ccc([N+](=O)[O-])cc2)CC1c1ccccc1` (stereo not given): the IC50 in assay [1] was 200 nM.

A word on the IC50: it is the concentration that inhibits the measured activity by half.

The values are drawn from PubChem BioAssay AID651691 (NMMLSC, 2012).
